Data: patent US12233073B2, “Skin care formulations and skin cancer treatment” (Regents of the University of Minnesota, priority 2017, dated 2025)

How the values were obtained:
[1] = tested on: cyclobutane pyrimidine dimers (CPD); assay: Cyclobutane pyrimidine dimer (CPD) formation in skin of SKH1 hairless mice exposed to acute SSL; format: in vivo, mouse; details: topical 0.1% or 1%
Method: The effect of rocuronium bromide treatment and betamethasone 17-valerate treatment on the formation of cyclobutene pyrimidine dimers was evaluated. sUV-induced DNA damage, predominantly observed as the formation of cyclobutane pyrimidine dimers (CPD), is recognized as an important molecular trigger for the initiation of sUV-induced immunosuppression and carcinogenesis in the skin. FIG. 19A is a chart comparing effect of rocuronium bromide treatment and betamethasone 17-valerate treatment on the formation of cyclobutene pyrimidine dimers in skin tissues from SKH1 hairless mice exposed to acute SSL. FIG. 19C is a photographic array comparing amount of CPD in immunologically stained control mouse skin samples. FIG. 19D is a photographic array comparing amount of CPD in immunologically stained mouse skin samples exposed only to a vehicle. FIG. 19E is a photographic array comparing amount of CPD in immunologically stained mouse skin samples exposed to rocuronium bromide alone. FIG. 19F is a photographic array comparing amount of CPD in immunologically stained mouse skin samples exposed to betamethasone 17-valerate alone. FIG. 19G is a photographic array comparing amount of CPD in immunologically stained mouse skin samples exposed to SSL alone. FIG. 19H is a photographic array comparing amount of CPD in immunologically stained mouse skin samples exposed to SSL with the vehicle. […]

[2] = molecular target: T1, wildtype PRPK recombinant GST protein (Homo sapiens, UniProt Q96S44); assay: In vitro binding assay, drug-conjugated Sepharose 4B beads with GST-PRPK; details: pull-down with drug-conjugated Sepharose 4B beads
T1 sequence (Q96S44 1-253): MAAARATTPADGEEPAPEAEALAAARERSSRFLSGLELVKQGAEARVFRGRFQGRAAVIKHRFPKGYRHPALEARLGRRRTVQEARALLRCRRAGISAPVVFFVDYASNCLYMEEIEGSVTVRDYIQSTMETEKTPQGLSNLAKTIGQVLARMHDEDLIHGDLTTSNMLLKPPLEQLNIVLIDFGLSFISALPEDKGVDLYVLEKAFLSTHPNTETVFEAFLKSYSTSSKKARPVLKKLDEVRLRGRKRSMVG
Method: (§1) The interaction between rocuronium bromide and PRPK, and the inhibition of PRPK phosphorylation by rocuronium bromide was evaluated. In vitro and ex vivo binding assays were conducted using GST-PRPK or A431 cell lysates and rocuronium bromide-conjugated Sepharose 4B beads. FIG. 13A is a photograph illustrating a chromatographic plate showing the interaction and binding of PRPK with rocuronium bromide in A431 cells. FIG. 13B is a photograph illustrating a chromatographic plate showing the interaction and binding of rocuronium bromide with wildtype PRPK recombinant GST protein.
as §1, with “betamethasone 17-valerate” for “rocuronium bromide”, “using recombinant” for “using”, “betamethasone 17-valerate-conjugated” for “rocuronium bromide-conjugated”, “14A” for “13A”, “14B” for “13B”

[3] = tested on: SSL-exposed skin of SKH-1 hairless mouse; assay: Acute SSL-induced skin inflammation in SKH-1 hairless mouse skin (H&E, p-PRPK staining and blot); format: in vivo; details: for sUV-induced increase in PRPK expression / sUV-induced increase in epidermal thickness: topical in cream carrier, 24 h after SSL irradiation, vs untreated sUV-exposed group; for phosphorylation of PRPK in sUV-treated mouse skin / sUV-induced phosphorylation on increasing the concentration: topical treatment; for sUV-induced phosphorylation on increasing the concentration: higher concentration
Method: PRPK phosphorylation induced by sUV is a potent stimulator of skin inflammation. Inflammation contributes to tumor development and progression and metastasis often arises in acute and chronic inflammatory skin conditions and increased epidermal thickness is a sign of sUV-induced inflammatory responses. To examine the effect of rocuronium bromide on SSL-induced acute skin inflammation, H&E (haemotoxylin and eosin) staining on SSL-exposed skin tissues of SKH-1 hairless mouse skin was performed. FIG. 15 is a photographic array comparing epidermal thickness in mouse skin samples exposed to one or more of SSL, rocuronium bromide, and betamethasone 17-valerate. FIG. 16 is a photographic array comparing expression of phosphorylated PRPK in immunologically stained mouse skin samples exposed to one or more of SSL, rocuronium bromide, and […]. A cream carrier was used to apply the rocuronium bromide or betamethasone 17-valerate. […] In contrast, application of rocuronium bromide or betamethasone-17-valerate attenuated sUV-induced increases in epidermal thickness and PRPK expression compared to the untreated sUV-exposed group (FIGS. 15 and 16).
FIG. 17 is a photograph illustrating a chromatographic plate comparing the phosphorylation of PRPK in mouse skin tissue samples treated or not treated with rocuronium bromide and exposed or not exposed to SSL. FIG. 18 is a photograph illustrating a chromatographic plate comparing the phosphorylation of PRPK in mouse skin tissue samples treated or not treated with betamethasone 17-valerate and exposed or not exposed to SSL. Topical treatment with rocuronium bromide (FIG. 17) or betamethasone-17-valerate (FIG. 18) decreased phosphorylation of PRPK in sUV-treated mouse skin.

Structure (SMILES) | sUV-induced CPD production [1] | binding to GST-PRPK [2] | sUV-induced increase in PRPK expression [3] | sUV-induced increase in epidermal thickness [3] | phosphorylation of PRPK in sUV-treated mouse skin [3] | sUV-induced phosphorylation on increasing the concentration [3]
CCCCC(=O)O[C@]1(C(=O)CO)[C@@H](C)C[C@H]2[C@@H]3CCC4=CC(=O)C=C[C@]4(C)[C@@]3(F)[C@@H](O)C[C@@]21C [betamethasone 17-valerate] | reduced | binds | attenuated | attenuated | decreased | further reduced
C=CC[N+]1([C@H]2C[C@H]3[C@@H]4CC[C@H]5C[C@H](O)[C@@H](N6CCOCC6)C[C@]5(C)[C@H]4CC[C@]3(C)[C@H]2OC(C)=O)CCCC1 [rocuronium bromide] | reduced | binds | attenuated | attenuated | decreased | further reduced
